Experimental data as given in patent EP0326640B1, “(1R,5S,6S)-2-substituted thio-6 (R)-1-hydroxyethyl -1-methyl-carbapenem - carboxylic acid derivatives” (LEDERLE (JAPAN) LTD., priority 1987, dated 1989).
Values after ≈ are worked out from the molar mass of the structure shown. Where two headings read alike, the source gives them in different places.

Experiments:
Experiment in all cases: Antibacterial activity against clinically isolated β-lactamase (cephalosporinase) producing strains (MIC)
Format in all cases: cell-based
[1] = tested on: Proteus morganii GN 5307; conditions: cephalosporinase producing strain, SDA, 18 to 20 hours
Method: (§1) The antibacterial activities against clinically isolated β-lactamase producing strains were tested by the agar plate dilution method in accordance with the standard method of The Japanese Chemotherapy Society [Chemotherapy, Vol. 29, 76-79 (1981)]. A solution of a cephalosporinase producing strain stored by Episome Research Institute, prepared by incubating the strain in a sensitivity test broth (STB; product of Nissui K. K.) for 18 hours, was diluted with a fresh STB solution so that the solution contained 10⁶ cells per milliliter. The diluted solution was then inoculated as spots in a microplanter on a sensitivity disk agar-N (SDA; product of Nissui K. K.) containing a test compound. The disk agar was then incubated for 18 to 20 hours. The minimum inhibitory concentration was determined as a minimum concentration in which the test microorganism no longer grew after a 18 to 20-hour incubation.

[2] = tested on: Serratia marcescens GN 10857; conditions: Serratia marcescens, GN10857, Serratia marcescens GN 10857; cephalosporinase producing strain, SDA, 18 to 20 hours; read-out: MIC
Method: as §1

[3] = tested on: Proteus vulgaris GN 4413; conditions: Proteus vulgaris
Method: as §1

[4] = tested on: Serratia marcescens L-65; conditions: Serratia marcescens, L65, Serratia marcescens L-65; cephalosporinase producing strain, SDA, 18 to 20 hours; read-out: MIC
Method: as §1

[5] = tested on: Pseudomonas aeruginosa GN 918; conditions: GN918; Pseudomonas aeruginosa GN 918; cephalosporinase producing strain, SDA, 18 to 20 hours; read-out: MIC
Method: as §1

[6] = tested on: Enterobacter cloacae GN 5797; conditions: GN5797, cephalosporinase producing strain, SDA, 18 to 20 hours, read-out: MIC
Method: as §1

[7] = tested on: Pseudomonas cepacia GN 11164; conditions: Burkholderia cepacia, GN11164, cephalosporinase producing strain, SDA, 18 to 20 hours, read-out: MIC
Method: as §1

[8] = tested on: Citrobactor freundii GN 7391; conditions: cephalosporinase producing strain, SDA, 18 to 20 hours
Method: as §1

[9] = tested on: Enterobacter cloacae GN 7467; conditions: GN7467; Enterobacter cloacae GN 7467; cephalosporinase producing strain, SDA, 18 to 20 hours; read-out: MIC
Method: as §1

[10] = tested on: Proteus vulgaris GN 7919; conditions: cephalosporinase producing strain, SDA, 18 to 20 hours
Method: as §1

[11] = tested on: Providencia rettgeri GN 4762; conditions: Providencia rettgeri, GN4762, Providencia rettgeri GN 4762; cephalosporinase producing strain, SDA, 18 to 20 hours; read-out: MIC
Method: as §1

[12] = tested on: Enterobacter cloacae GN 7471; conditions: GN7471, cephalosporinase producing strain, SDA, 18 to 20 hours, read-out: MIC
Method: as §1

[13] = tested on: Pseudomonas aeruginosa GN 10367; conditions: Pseudomonas aeruginosa, GN10367, Pseudomonas aeruginosa GN 10367; cephalosporinase producing strain, SDA, 18 to 20 hours
Method: as §1

[14] = tested on: Citrobactor freundii GN 346; conditions: cephalosporinase producing strain, SDA, 18 to 20 hours
Method: as §1

[15] = tested on: Proteus morganii GN 5375; conditions: Morganella morganii, GN5375, cephalosporinase producing strain, SDA, 18 to 20 hours, read-out: MIC
Method: as §1

[16] = tested on: Proteus morganii GN 5407; conditions: Morganella morganii, GN5407, cephalosporinase producing strain, SDA, 18 to 20 hours, read-out: MIC
Method: as §1

[17] = tested on: Providencia rettgeri GN 4430; conditions: GN4430, cephalosporinase producing strain, SDA, 18 to 20 hours, read-out: MIC
Method: as §1

[18] = tested on: Serratia marcescens L-82; conditions: L82, cephalosporinase producing strain, SDA, 18 to 20 hours, read-out: MIC
Method: as §1

[19] = tested on: Klebsiella oxytoca GN 10650; conditions: Klebsiella oxytoca, GN10650, Klebsiella oxytoca GN 10650; cephalosporinase producing strain, SDA, 18 to 20 hours; read-out: MIC
Method: as §1

[20] = tested on: Escherichia coli No. 1501; conditions: cephalosporinase producing strain, SDA, 18 to 20 hours, read-out: MIC
Method: as §1

[21] = tested on: Providencia rettgeri GN 5284; conditions: GN5284, cephalosporinase producing strain, SDA, 18 to 20 hours, read-out: MIC
Method: as §1

[22] = tested on: Pseudomonas aeruginosa GN 10362; conditions: GN10362, cephalosporinase producing strain, SDA, 18 to 20 hours, read-out: MIC
Method: as §1

[23] = tested on: Escherichia coli No. 96; conditions: cephalosporinase producing strain, SDA, 18 to 20 hours, read-out: MIC
Method: as §1

[24] = tested on: Escherichia coli GN 5482; conditions: GN5482, cephalosporinase producing strain, SDA, 18 to 20 hours, read-out: MIC
Method: as §1

[25] = tested on: Proteus vulgaris GN 76; conditions: Proteus vulgaris, GN76, Proteus vulgaris GN 76; cephalosporinase producing strain, SDA, 18 to 20 hours; read-out: MIC
Method: as §1

SMILES | MIC [2] | MIC [4] | MIC [5] | MIC [6] | MIC [7] | MIC [8] | MIC [9] | MIC [11] | MIC [12] | MIC [13] | MIC [14] | MIC [15] | MIC [16] | MIC [17] | MIC [18] | MIC [19] | MIC [20] | MIC [21] | MIC [22] | MIC [23] | further results
C[C@@H](O)[C@H]1C(=O)N2C(C(=O)[O-])=C(SCc3cs[n+](C)n3)[C@H](C)[C@H]12 [Amorphous Compd. (14), (1R,5S,6S)-2-[(2-methyl-1,2,3-thiadiazolium-4-yl)methyl]thio-6-[(R)-1-hydroxyethyl]-1-methyl-carbapenem-3-carboxylate] | 6.25 µg/mL (≈ 17.6 µM) | 0.78 µg/mL (≈ 2.19 µM) | 0.78 µg/mL (≈ 2.19 µM) | 0.1 µg/mL (≈ 0.281 µM) | 0.39 µg/mL (≈ 1.1 µM) | 1.56 µg/mL (≈ 4.39 µM) | 3.13 µg/mL (≈ 8.81 µM) | 0.39 µg/mL (≈ 1.1 µM) | 0.1 µg/mL (≈ 0.281 µM) | 1.56 µg/mL (≈ 4.39 µM) | 0.78 µg/mL (≈ 2.19 µM) | 3.13 µg/mL (≈ 8.81 µM) | 6.25 µg/mL (≈ 17.6 µM) | 0.39 µg/mL (≈ 1.1 µM) | 0.2 µg/mL (≈ 0.563 µM) | 0.39 µg/mL (≈ 1.1 µM) | 0.05 µg/mL (≈ 0.141 µM) | 0.39 µg/mL (≈ 1.1 µM) | 0.78 µg/mL (≈ 2.19 µM) | 0.05 µg/mL (≈ 0.141 µM) | MIC ([1]; Proteus morganii GN 5307): 3.13 µg/mL (≈ 8.81 µM); MIC ([3]; GN4413, Proteus vulgaris GN 4413, cephalosporinase producing strain, SDA, 18 to 20 hours, read-out: MIC): 6.25 µg/mL (≈ 17.6 µM); MIC ([10]; Proteus vulgaris GN 7919): 6.25 µg/mL (≈ 17.6 µM); MIC [24]: 0.05 µg/mL (≈ 0.141 µM); MIC [25]: 6.25 µg/mL (≈ 17.6 µM)
C[C@@H](O)[C@H]1C(=O)N2C(C(=O)O)=C(SCCN=CN)C[C@H]12 [Imipenem, imipenem] | 3.13 µg/mL (≈ 10.5 µM) | 0.39 µg/mL (≈ 1.3 µM) | 0.78 µg/mL (≈ 2.61 µM) | 0.39 µg/mL (≈ 1.3 µM) | 3.13 µg/mL (≈ 10.5 µM) | 0.78 µg/mL (≈ 2.61 µM) | 0.78 µg/mL (≈ 2.61 µM) | 0.39 µg/mL (≈ 1.3 µM) | 0.2 µg/mL (≈ 0.668 µM) | 1.56 µg/mL (≈ 5.21 µM) | 0.39 µg/mL (≈ 1.3 µM) | 3.13 µg/mL (≈ 10.5 µM) | 3.13 µg/mL (≈ 10.5 µM) | 0.39 µg/mL (≈ 1.3 µM) | 0.2 µg/mL (≈ 0.668 µM) | 0.2 µg/mL (≈ 0.668 µM) | 0.1 µg/mL (≈ 0.334 µM) | 0.39 µg/mL (≈ 1.3 µM) | 0.78 µg/mL (≈ 2.61 µM) | 0.1 µg/mL (≈ 0.334 µM) | MIC ([1]; Morganella morganii, GN5307, Proteus morganii GN 5307, read-out: MIC): 0.78 µg/mL (≈ 2.61 µM); MIC ([3]; GN4413): 6.25 µg/mL (≈ 20.9 µM); MIC ([10]; Proteus vulgaris, GN7919, Proteus vulgaris GN 7919, read-out: MIC): 0.39 µg/mL (≈ 1.3 µM); MIC [24]: 0.1 µg/mL (≈ 0.334 µM); MIC [25]: 3.13 µg/mL (≈ 10.5 µM)
